The record followed here is patent US7312181B2, “Acylated thiosemicarbazides as herbicides” (Cropsolution, Inc., priority 2005, dated 2007).

Each structure is given as a SMILES string.

This test concerns Arabidopsis thaliana. Nature of the test: Plate-based in vivo herbicidal screen, Arabidopsis thaliana. The following applies: 192 h, seeds in 96-well plate, 27° C., 8 days, continuous fluorescent lighting, scored by visual inspection. How it is done:
Plate-based in vivo screens were used to identify compounds with herbicidal activity. Three species of plants were used in screening: Arabidopsis thaliana, Agrostis sp. and Nicotinia tabacum (common tobacco). Test compounds in 1 μL of dimethylsulfoxide (DMSO) were delivered to individual wells of a 96-well microtiter plate. Growth media containing 10-15 seeds per 100 uL were then added. The growth media consisted of Murashige and Skoog Basal salt mixture, and 0.15% low melt agarose, all at a pH 6.2. The seeds remained neutrally buoyant and were easily pipettable at this concentration of low melt agarose. Each plate contained a column of untreated control wells in order to determine the false positive rate. The plates were covered and sealed and incubated at 27° C. for 8 days under continuous fluorescent lighting (155 umol/m^2/s). The plates were scored for herbicidal activity by visual inspection. Observed symptomology included growth inhibition, bleaching, leaf curling, and root growth inhibition. Six commercial herbicide standards were run concurrently with the experimental compounds as internal controls for assay sensitivity and plant response. The standards are described in Table 1 with their biochemical mode of action. The herbicidal activity of compositions in the present invention, presented as EC90 concentrations in the Arabidopsis thaliana screen, is tabulated in Table 2.

With `O=C(Nc1cccc(C(=O)NNC(=S)Nc2ccccc2Cl)c1Cl)c1cccc(Cl)c1` [Compound 3, 1-[2-Chloro-3-(3-chloro-benzamido)-benzoyl]-4-(2-chlorophenyl)-thiosemicarbazide], the EC90 (in general, the point of the concentration-response curve where the effect stands at 90%) is 3.3 µM. That is a single-digit micromolar value.

`O=C(NNC(=S)Nc1ccccc1Cl)c1ccc(Cl)c(NC(=O)c2cccc(C(F)(F)F)c2)c1` [Compound 11, 4-(2-Chlorophenyl)-1-[4-chloro-3-(3-trifluoromethylbenzamido)-benzoyl]-thiosemicarbazide] registered an EC90 of 3.3 µM.

Compound `Cc1c(NC(=O)c2cccc(Cl)c2)cccc1C(=O)NNC(=S)Nc1ccccc1Cl` [Compound 4, 1-[3-(3-Chlorobenzamido)-2-methylbenzoyl]-4-(2-chloro-phenyl)-thiosemicarbazide] returned an EC90 of 0.3 µM.

For the compound `O=C(NNC(=S)Nc1ccccc1Cl)c1cccc(NC(=O)c2cc(F)ccc2F)c1` [Compound 22, 4-(2-Chlorophenyl)-1-[3-(2,5-difluorobenzamido)-benzoyl]-thiosemicarbazide], the EC90 was 0.05 µM.

For `O=C(NNC(=S)Nc1ccccc1Cl)c1cccc(NC(=O)c2cccc(C(F)(F)F)c2)c1` [Compound 12, 4-(2-Chlorophenyl)-1[3-(3-trifluoromethylbenzamido)-benzoyl]-thiosemicarbazide], it took 0.3 µM to reach the 90% level (EC90).

As to `O=C(NNC(=S)Nc1ccccc1)c1cccc(NC(=O)c2cccc(Cl)c2)c1` [Compound 6, 1-[3-(3-Chlorobenzamido)-benzoyl]-4-phenyl-thiosemicarbazide], the 90% effect level (EC90) was put at 0.15 µM. Against the preceding compound, the EC90 is about 2-fold lower.

Regarding `O=C(NNC(=S)Nc1ccccc1F)c1cccc(NC(=O)c2cccc(Cl)c2)c1` [Compound 9, 1-[3-(3-Chlorobenzamido)-benzoyl]-4-(2-fluorophenyl)-thiosemicarbazide], the EC90 is 0.05 µM.

Turning to `O=C(NNC(=S)Nc1ccccc1Cl)c1cccc(NC(=O)c2cccc(F)c2)c1` [Compound 23, 4-(2-Chlorophenyl)-1-[3-(3-fluorobenzamido)-benzoyl]-thiosemicarbazide], the EC90 is 0.05 µM.

`O=C(Nc1cccc(C(=O)NNC(=S)Nc2ccccc2Cl)c1Cl)c1cccc(C(F)(F)F)c1` [Compound 14, 4-(2-Chlorophenyl)-1-[2-chloro-3-(3-trifluoromethylbenzamido)-benzoyl]-thiosemicarbazide] had an EC90 of 0.3 µM.

In turn, `O=C(NNC(=S)Nc1ccccc1C(F)(F)F)c1cccc(NC(=O)c2cccc(Cl)c2)c1` [Compound 7, 1-[3-(3-Chlorobenzamido)-benzoyl]-4-(2-trifluoromethylphenyl)-thiosemicarbazide] gave an EC90 of 1.2 µM.

Compound `O=C(NNC(=S)Nc1ccccc1Cl)c1cccc(NC(=O)c2cccc(Cl)c2)c1` [Compound 2, 1-[3-(3-Chlorobenzamido)-benzoyl]-4-(2-chlorophenyl)-thiosemicarbazide] had a 90% effect concentration (EC90) of 0.1 µM.
